# Laboratory results published in paper PMC3532596, “Cell-based optimization of novel benzamides as potential antimalarial leads” (Bioorganic & Medicinal Chemistry Letters, 2009).
# Key:
# [1] = tested on: P. falciparum 3D7 strain; test: cell-based P. falciparum proliferation assay, 3D7 strain; details: Plasmodium falciparum; chloroquine sensitive 3D7 strain; means of two experiments
# Text: (§1) Currently there is a need for novel chemical scaffolds with different mechanisms of action, since most of the current approved antimalarial drugs belong to the aminoquinoline family. In order to find new chemical scaffolds, we initiated a compound screen using our in-house kinase inhibitor collection and subjected them to a cell-based of Plasmodium falciparum proliferation assay[5,6] We envisioned that the hits arising from this screen can be rapidly optimized by leveraging our past experiences with these compounds series in alternative target-classes/indications. Furthermore, we thought that it would be prudent to remove the human kinase activity early on during the compound optimization phase to negate the possibility of toxicity arising from host-related off-target activities (Scheme 1).
# [2] = tested on: P. falciparum W2 strain; test: cell-based P. falciparum proliferation assay, W2 strain; set-up: species or system Plasmodium falciparum; details: for EC50: Plasmodium falciparum, W2, read-out: P. falciparum W2 strain EC50
# Text: as §1
# One important aspect of antimalarial drug discovery is to identify agents that are active against the drug-resistant parasites. […] While most of these resistance phenotypes are due to point mutations in the drug target, the W2 strain also contains an amplification of the P. falciparum multidrug resistance transporter.[10]
# [3] = snapshot PK in mice, single oral dose; assay type: in vivo; details: mice balb/c, 20 mg/kg orally, PEG300/D5W 3:1 solution, free base; for AUC(0-t) / Cmax at 5 h / Tmax at 5 h: mouse, in vivo, po
# Experimental: Mice were dosed a single dose of 20 mg/kg orally and their exposure levels were monitored over a period of 5 h and results are summarized in Table 6.[11]
# [11] Snapshot PK is developed and used by GNF pharmacology group as a rapid pharmacokinetic screening approach. The pharmacokinetic parameters of the compounds are studied in a single mode of administration (generally PO arm) over a period of 5 h. The study is carried out on two animals and the samples are pooled together at each time point. This high throughput approach offers exposure levels with reasonable confidence without committing to extensive resources. For details, see: Liu, B.; Chang, J.; Gordon, W. P.; Isbell, J.; Zhou, Yi.; Tuntland, T. Drug Discovery Today2008, 13, 360–367.
# [4] = tested on: P. falciparum strain 3BAG; test: P. falciparum proliferation assay, 3BAG strain; assay type: cell-based; details: Plasmodium falciparum
# Text: as §1
# (§2) Compound 32 was profiled in an extended panel of 15 drug resistant strains (Table 5) and against a 6-cell line toxicity panel.
# [5] = tested on: P. falciparum strain 7G8; test: P. falciparum proliferation assay, 7G8 strain; assay type: cell-based; details: Plasmodium falciparum
# Text: as §1, §2
# [6] = tested on: P. falciparum strain C188; test: P. falciparum proliferation assay, C188 strain; assay type: cell-based; details: Plasmodium falciparum
# Text: as §1, §2
# [7] = tested on: P. falciparum strain D10; test: P. falciparum proliferation assay, D10 strain; assay type: cell-based; details: Plasmodium falciparum
# Text: as §1, §2
# [8] = tested on: P. falciparum strain D6; test: P. falciparum proliferation assay, D6 strain; assay type: cell-based; details: Plasmodium falciparum
# Text: as §1, §2
# [9] = tested on: P. falciparum strain Dd2; test: P. falciparum proliferation assay, Dd2 strain; assay type: cell-based; details: Plasmodium falciparum
# Text: as §1, §2
# [10] = tested on: P. falciparum strain Camp R; test: P. falciparum proliferation assay, Camp R strain; assay type: cell-based; details: Plasmodium falciparum
# Text: as §1, §2
# [11] = tested on: P. falciparum strain FCB; test: P. falciparum proliferation assay, FCB strain; assay type: cell-based; details: Plasmodium falciparum
# Text: as §1, §2
# [12] = tested on: P. falciparum strain FCR3; test: P. falciparum proliferation assay, FCR3 strain; assay type: cell-based; details: Plasmodium falciparum
# Text: as §1, §2
# [13] = tested on: P. falciparum strain HB3; test: P. falciparum proliferation assay, HB3 strain; assay type: cell-based; details: Plasmodium falciparum
# Text: as §1, §2
# [14] = tested on: P. falciparum strain K1; test: P. falciparum proliferation assay, K1 strain; assay type: cell-based; details: Plasmodium falciparum
# Text: as §1, §2
# [15] = tested on: P. falciparum strain NF54; test: P. falciparum proliferation assay, NF54 strain; assay type: cell-based; details: Plasmodium falciparum
# Text: as §1, §2
# [16] = tested on: P. falciparum strain TM91C235; test: P. falciparum proliferation assay, TM91C235 strain; assay type: cell-based; details: Plasmodium falciparum
# Text: as §1, §2
# [17] = tested on: 15 P. falciparum strains; test: extended panel of 15 drug resistant strains; assay type: cell-based, Plasmodium falciparum; details: 15 strains, potencies relative to each other
# Text: as §2
# [18] = tested on: 293T; assay type: cell-based; details: human
# Text: as §2
# [19] = tested on: Ba/F3; assay type: cell-based; details: mouse
# Text: as §2
# [20] = tested on: CHO; assay type: cell-based; details: Chinese hamster
# Text: as §2
# [21] = tested on: HEp2; assay type: cell-based; details: human
# Text: as §2
# [22] = tested on: HeLa; assay type: cell-based; details: human
# Text: as §2
# [23] = tested on: Huh7; assay type: cell-based; details: human
# Text: as §2
# [24] = 6-cell line toxicity panel, selectivity index; assay type: cell-based; details: cytotoxicity TC50 vs antiplasmodial potency; read-out: selectivity index (SI)
# Text: as §2
# [25] = HT-thermodynamic solubility; assay type: physicochemical; details: pH 6.8; pH6.8, free base; preliminary
# Text: (§3) We also performed preliminary solubility and metabolic stability measurements on compound 32.
# [26] = metabolic stability in mouse microsomes; assay type: in vitro ADME; details: preliminary
# Text: as §3
compound,measurement,setting,value
CCCNC(=O)c1cc(N2CCC(N3CCCC3)CC2)cc(C(F)(F)F)c1 [Compound 4],EC50,[1],6480 nM
O=C(Nc1ccncn1)c1cc(N2CCC(N3CCCC3)CC2)cc(C(F)(F)F)c1 [Compound 5],EC50,[1],2160 nM
O=C(Nc1ccccc1Cl)c1cc(N2CCC(N3CCCC3)CC2)cc(C(F)(F)F)c1 [Compound 6],EC50,[1],1720 nM
O=C(Nc1ccc(Cl)cc1)c1cc(N2CCC(N3CCCC3)CC2)cc(C(F)(F)F)c1 [Compound 7],EC50,[1],114 nM
O=C(Nc1cccc(Cl)c1)c1cc(N2CCC(N3CCCC3)CC2)cc(C(F)(F)F)c1 [Compound 8],EC50,[1],134 nM
same,EC50,[2],888 nM
same,shift in potency between 3D7 and W2,[2]; W2 vs 3D7,~6 fold
same,AUC(0–5h)/dose,[3],5.31 (min ug/mL)/(mg/kg)
same,AUC(0-t),[3],3.92 µM·h
same,Cmax at 5 h,[3],1360 nM
same,Tmax at 5 h,[3],1 h
N#Cc1cccc(NC(=O)c2cc(N3CCC(N4CCCC4)CC3)cc(C(F)(F)F)c2)c1 [Compound 9],EC50,[1],146 nM
O=C(Nc1cccc(C(F)(F)F)c1)c1cc(N2CCC(N3CCCC3)CC2)cc(C(F)(F)F)c1 [Compound 10],EC50,[1],174 nM
O=C(Nc1ccc(Cl)c(Cl)c1)c1cc(N2CCC(N3CCCC3)CC2)cc(C(F)(F)F)c1 [Compound 11],EC50,[1],54 nM
O=C(Nc1ccc(Br)c(Cl)c1)c1cc(N2CCC(N3CCCC3)CC2)cc(C(F)(F)F)c1 [Compound 12],EC50,[1],98 nM
O=C(Nc1cc(Cl)cc(Cl)c1)c1cc(N2CCC(N3CCCC3)CC2)cc(C(F)(F)F)c1 [Compound 13],EC50,[1],48 nM
same,AUC(0–5h)/dose,[3],7.01 (min ug/mL)/(mg/kg)
same,AUC(0-t),[3],4.81 µM·h
same,Cmax at 5 h,[3],1640 nM
same,Tmax at 5 h,[3],5 h
O=C(Nc1cc(N2CCC(N3CCCC3)CC2)cc(C(F)(F)F)c1)c1cccc(C(F)(F)F)c1 [Compound 14],EC50,[1],201 nM
same,AUC(0–5h)/dose,[3],6.94 (min ug/mL)/(mg/kg)
same,AUC(0-t),[3],4.77 µM·h
same,Cmax at 5 h,[3],1170 nM
same,Tmax at 5 h,[3],3 h
N#Cc1cccc(C(=O)Nc2cc(N3CCC(N4CCCC4)CC3)cc(C(F)(F)F)c2)c1 [Compound 15],EC50,[1],402 nM
O=S(=O)(Nc1cc(N2CCC(N3CCCC3)CC2)cc(C(F)(F)F)c1)c1cccc(C(F)(F)F)c1 [Compound 16],EC50,[1],8250 nM
CN(C(=O)c1cc(N2CCC(N3CCCC3)CC2)cc(C(F)(F)F)c1)c1cccc(Cl)c1 [Compound 17],EC50,[1],4680 nM
O=C(Nc1cccc(C(F)(F)F)c1)Nc1cc(N2CCC(N3CCCC3)CC2)cc(C(F)(F)F)c1 [Compound 18],EC50,[1],452 nM
O=C(Nc1cccc(Cl)c1)Nc1cc(N2CCC(N3CCCC3)CC2)cc(C(F)(F)F)c1 [Compound 19],EC50,[1],328 nM
FC(F)(F)c1cccc(CNc2cc(N3CCC(N4CCCC4)CC3)cc(C(F)(F)F)c2)c1 [Compound 20],EC50,[1],1980 nM
FC(F)(F)c1cccc(Nc2cc(N3CCC(N4CCCC4)CC3)cc(C(F)(F)F)c2)c1 [Compound 21],EC50,[1],638 nM
O=C(NCc1cccc(C(F)(F)F)c1)c1cc(N2CCC(N3CCCC3)CC2)cc(C(F)(F)F)c1 [Compound 22],EC50,[1],734 nM
O=C(NC1(c2cccc(C(F)(F)F)c2)CC1)c1cc(N2CCC(N3CCCC3)CC2)cc(C(F)(F)F)c1 [Compound 23],EC50,[1],423 nM
O=C(Nc1cccc(Cl)c1)c1cc(F)cc(N2CCC(N3CCCC3)CC2)c1 [Compound 24],EC50,[1],766 nM
O=C(Nc1cccc(Cl)c1)c1cccc(N2CCC(N3CCCC3)CC2)c1 [Compound 25],EC50,[1],5880 nM
O=C(Nc1cccc(Cl)c1)c1ccnc(N2CCC(N3CCCC3)CC2)c1 [Compound 26],EC50,[1],674 nM
O=C(Nc1cccc(Cl)c1)c1cc(C(F)(F)F)nc(N2CCC(N3CCCC3)CC2)n1 [Compound 27],EC50,[1],1670 nM
Cc1cc(C(=O)Nc2cccc(Cl)c2)nc(N2CCC(N3CCCC3)CC2)n1 [Compound 28],EC50,[1],2980 nM
CC(C)(C)c1cc(C(=O)Nc2cccc(Cl)c2)nc(N2CCC(N3CCCC3)CC2)n1 [Compound 29],EC50,[1],2080 nM
O=C(Nc1cccc(Cl)c1)c1cc(N2CCC(N3CCCCC3)CC2)cc(C(F)(F)F)c1 [Compound 30],EC50,[1],82 nM
same,EC50,[2],296 nM
same,AUC(0–5h)/dose,[3],6.10 (min ug/mL)/(mg/kg)
same,AUC(0-t),[3],4.37 µM·h
same,Cmax at 5 h,[3],1370 nM
same,Tmax at 5 h,[3],1 h
O=C(Nc1cccc(C(F)(F)F)c1)c1cc(N2CCC(N3CCCCC3)CC2)cc(C(F)(F)F)c1 [Compound 31],EC50,[1],149 nM
same,EC50,[2],299 nM
CC1CCN(C2CCN(c3cc(C(=O)Nc4cccc(Cl)c4)cc(C(F)(F)F)c3)CC2)CC1 [Compound 32],EC50,[1],140 nM
same,EC50,[2],323 nM
same,EC50,[4],268 nM
same,EC50,[5],309 nM
same,EC50,[6],83 nM
same,EC50,[7],94 nM
same,EC50,[8],81 nM
same,EC50,[9],141 nM
same,EC50,[10],138 nM
same,EC50,[11],306 nM
same,EC50,[12],218 nM
same,EC50,[13],146 nM
same,EC50,[14],150 nM
same,EC50,[15],104 nM
same,EC50,[16],120 nM
same,spread of potencies across the strain panel,[17],≤ 3 fold
same,cytotoxicity TC50,[18],greater than 8 μM
same,cytotoxicity TC50,[19],greater than 8 μM
same,cytotoxicity TC50,[20],greater than 8 μM
same,cytotoxicity TC50,[21],greater than 8 μM
same,cytotoxicity TC50,[22],greater than 8 μM
same,cytotoxicity TC50,[23],greater than 8 μM
same,selectivity ratio,[24],> 20
same,AUC(0–5h)/dose,[3],11.42 (min ug/mL)/(mg/kg)
same,AUC(0-t),[3],7.93 µM·h
same,Cmax at 5 h,[3],2280 nM
same,Tmax at 5 h,[3],5 h
same,solubility thermodynamic,[25],26 µg/mL
same,extraction ratio,[26],0.383 ± 0.04
same,microsomal CLint,[26],21.4 µL/min/mg
O=C(Nc1cccc(C(F)(F)F)c1)c1cc(N2CCC(N3CCCCC3=O)CC2)cc(C(F)(F)F)c1 [Compound 33],EC50,[1],1490 nM
same,EC50,[2],1410 nM
CC1CCCN(C2CCN(c3cc(C(=O)Nc4cccc(C(F)(F)F)c4)cc(C(F)(F)F)c3)CC2)C1 (stereo not shown) [Compound 34],EC50,[1],58 nM
same,EC50,[2],211 nM
O=C(Nc1cccc(C(F)(F)F)c1)c1cc(N2CCc3ccccc3C2)cc(C(F)(F)F)c1 [Compound 35],EC50,[1],175 nM
same,EC50,[2],635 nM
same,AUC(0–5h)/dose,[3],2.33 (min ug/mL)/(mg/kg)
same,AUC(0-t),[3],1.67 µM·h
same,Cmax at 5 h,[3],672 nM
same,Tmax at 5 h,[3],0.5 h
